≈ marks a conversion by molar mass, not a printed value. Where “and” joins values, the source holds several entries; their conditions need not be identical. Equal entries are not always repeated.
Legend:
[1] = test system: Staphylococcus aureaus CHP; experiment: mice infected intraperitoneally, single dose six hours post-infection, deaths and CD50; format: in vivo; settings: for ED50: Staphylococcus
Experimental: Mice are infected intraperitoneally with a standardized suspension of Staphylococcus aureaus CHP in 5% gastric mucin. The animals are randomized. Six hours post-infection a single dose of the compound indicated is administered by the route indicated. The animals are observed for a 30 day period and deaths are recorded daily. The CD50 for 14 and 30 days as determined by the method of Reed and Muench, American Journal of Hygiene (1938), for each compound is tabulated:
7-[2-(5-Acetylamino-1,3,4-thiadiazol-2-ylthio)acetamido]cephalosporanic acid is tested as described in Example 5.

[2] = test system: Shigella boydii 9207; experiment: agar serial dilution MIC; format: cell-based; settings: Example 4
Experimental: (§1) A stock solution of 7-[2-(4,5-dihydro-5-imino-1,3,4-thiadiazol-2-ylthio)acetamido]cephalosporanic acid as the hydrobromic acid addition salt containing 2,500 μg. of the active moiety is prepared in phosphate buffer. Two fold serial dilutions are prepared with phosphate buffer. One milliliter (ml.) quantities of each dilution are incorporated in 9 ml. seen agar in sterile Petri plates. The hardened surface is innoculated with test organisms using a Steers replicating device. The plates are incubated at 35° C. for 18 hours.
(§2) The test organisms are Bacillus subtilis (BA SU) 6633; Staphylococcus aureus (ST AU) 6538P, Smith CHP, and 3-180; Mycobacterium smegmatis (MY SM) 10143; Neisseria catarrhalis (NE CA) 8193; Pseudonomas aeruginosa (PS AE) 10145; Escherichia coli (ES CO) 9637, and 920; Escherichia intermedia (ES IN) 65-1; Salmonella paratyphi (SA PA) 11737; Enterobacter aerogenes (EN AE) 13048; Klebsiella pneumoniae (KL PN) 10031; Bordetella bronchiseptica (BO BR) 4617; Proteus vulgaris (PR VU) 6896; and Herellea species (HE SP) 9955. These organisms are grown for 18 hours in Brain heart infusion at 35° C. Prior to use the cultures are diluted 10 fold with the infusion, except in the case of Mycobacterium. The latter is grown in Emerson's broth for 5 days at 28° C. in shaker flasks and used undiluted.
(§3) Following the procedure of Example 2 but substituting the organisms listed below the same preparation of 7-[2-(4,5-dihydro-5-imino-1,3,4-thiadiazol-2-ylthio)acetamido]cephalosporanic acid (Compound A) as used in Example 3, a third sample of the same compound, prepared as described in Example 1 (Compound B) and 7-[2-(5-acetamido-1,3,4-thiadiazol-2-ylthio)acetamido]cephalosporanic acid (Compound C) are tested to obtain the results shown: […]

[3] = test system: Shigella sonnei 11060; experiment: agar serial dilution MIC; format: cell-based; settings: Example 4
Experimental: as §1, §2, §3

[4] = test system: Serratia liquefaciens 27592; experiment: agar serial dilution MIC; format: cell-based; settings: Example 4
Experimental: as §1, §2, §3

[5] = test system: Enterobacter havniae 11604; experiment: agar serial dilution MIC; format: cell-based; settings: Example 4
Experimental: as §1, §2, §3

[6] = test system: Acinetobacter calcoaceticus 9957; experiment: agar serial dilution MIC; format: cell-based; settings: Example 4, read-out: MIC
Experimental: as §1, §2, §3

[7] = test system: Proteus mirabilis 9921; experiment: agar serial dilution MIC; format: cell-based; settings: Example 4
Experimental: as §1, §2, §3

[8] = test system: Klebsiella ozaenae 11296; experiment: agar serial dilution MIC; format: cell-based; settings: Example 4, read-out: MIC
Experimental: as §1, §2, §3

[9] = test system: Enterobacter agglomerans 27155; experiment: agar serial dilution MIC; format: cell-based; settings: Pantoea agglomerans, 27155; Example 4; read-out: MIC
Experimental: as §1, §2, §3

[10] = test system: Citrobacter freundii 8090; experiment: agar serial dilution MIC; format: cell-based; settings: Example 4
Experimental: as §1, §2, §3

[11] = test system: Citrobacter diversus 27156; experiment: agar serial dilution MIC; format: cell-based; settings: Citrobacter koseri, Example 4
Experimental: as §1, §2, §3

[12] = test system: Edwardsiella tarda 15947; experiment: agar serial dilution MIC; format: cell-based; settings: Edwardsiella tarda, 15947; Example 4; read-out: MIC
Experimental: as §1, §2, §3

[13] = test system: Salmonella cholera-suis 13312; experiment: agar serial dilution MIC; format: cell-based
Experimental: as §1, §2, §3

[14] = test system: Salmonella enteritidis 13076; experiment: agar serial dilution MIC; format: cell-based; settings: Salmonella enterica, Example 4
Experimental: as §1, §2, §3

[15] = test system: Serratia rubidae 27593; experiment: agar serial dilution MIC; format: cell-based; settings: Example 4
Experimental: as §1, §2, §3

[16] = test system: Providencia stuartii 25825; experiment: agar serial dilution MIC; format: cell-based; settings: Example 4
Experimental: as §1, §2, §3

[17] = test system: Salmonella typhi 19430; experiment: agar serial dilution MIC; format: cell-based; settings: Salmonella enterica
Experimental: as §1, §2, §3

[18] = test system: Shigella flexneri 12025; experiment: agar serial dilution MIC; format: cell-based; settings: Shigella flexneri, 12025, Example 4; read-out: MIC
Experimental: as §1, §2, §3

[19] = test system: Enterobacter cloacae 13047; experiment: agar serial dilution MIC; format: cell-based; settings: Example 4
Experimental: as §1, §2, §3

[20] = test system: Arizona arizonae 13314; experiment: agar serial dilution MIC; format: cell-based; settings: Salmonella enterica, 13314, Example 4
Experimental: as §1, §2, §3

[21] = test system: Klebsiella rhinoscleromatis 13884; experiment: agar serial dilution MIC; format: cell-based; settings: Klebsiella pneumoniae, Example 4
Experimental: as §1, §2, §3

[22] = test system: Klebsiella pneumoniae 13883; experiment: agar serial dilution MIC; format: cell-based; settings: Klebsiella pneumoniae, 13883, Example 4
Experimental: as §1, §2, §3

[23] = test system: Serratia marcescens 13880; experiment: agar serial dilution MIC; format: cell-based; settings: Example 4
Experimental: as §1, §2, §3

[24] = test system: Providencia alcalifaciens 9886; experiment: agar serial dilution MIC; format: cell-based; settings: Example 4
Experimental: as §1, §2, §3

[25] = sc, 336 h, subcutaneous, 14 Days, single dose, mice
[26] = sc, 720 h, subcutaneous, 30 Days, single dose, mice
[27] = subcutaneous, 50 mg/kg., 14 Days
[28] = subcutaneous, 50 mg/kg., 30 Days
[29] = subcutaneous, 100 mg/kg., 14 Days
[30] = subcutaneous, 100 mg/kg., 30 Days
[31] = subcutaneous, 200 mg/kg., 14 Days
[32] = subcutaneous, 200 mg/kg., 30 Days
[33] = subcutaneous, 400 mg/kg., 14 Days
[34] = subcutaneous, 400 mg/kg., 30 Days
[35] = subcutaneous, 14 Days, single dose, mice, 20160 min

How did the ED50 [1, 25] turn out when `Cc1nnc(SCC2=C(C(=O)O)N3C(=O)[C@@H](NC(=O)Cn4cnnn4)[C@H]3SC2)s1` [Cefazolin] was run?
The ED50 was 6.41 mg/kg.

What about the ED50 [1, 26] of the same molecule?
The ED50 was 7.2 mg/kg.

And the “Deaths / Total No. Treated” value [1, 27]?
Its value is 10/10.

What about the “Deaths / Total No. Treated” value [1, 28] of the same molecule?
Its value is 10/10.

What about the “Deaths / Total No. Treated” value [1, 29] of the same molecule?
Its value is 10/10 and 8/10.

What about the “Deaths / Total No. Treated” value [1, 30] of the same molecule?
Its value is 10/10.

And the “Deaths / Total No. Treated” value [1, 31]?
The value was 10/10.

And the “Deaths / Total No. Treated” value [1, 32]?
The value was 10/10.

What about the “Deaths / Total No. Treated” value [1, 33] of the same molecule?
The value was 4/10.

And the “Deaths / Total No. Treated” value [1, 34]?
Its value is 5/10.

What about the CD50 [1, 35] of the same molecule?
Its CD50 is 5.82 mg/kg.

`CCOc1ccc2ccccc2c1C(=O)N[C@@H]1C(=O)N2[C@@H]1SC(C)(C)[C@@H]2C(=O)O` [Nafcillin] was tested. Which ED50 [1, 25] did it give?
The ED50 was 3.12 mg/kg.

What about the ED50 [1, 26] of the same molecule?
The ED50 was 3.9 mg/kg.

What about the “Deaths / Total No. Treated” value [1, 27] of the same molecule?
The value was 9/10 and 10/10.

And the “Deaths / Total No. Treated” value [1, 28]?
The value was 9/10 and 10/10.

What about the “Deaths / Total No. Treated” value [1, 29] of the same molecule?
Its value is 9/10 and 7/10.

What about the “Deaths / Total No. Treated” value [1, 30] of the same molecule?
Its value is 10/10 and 7/10.

What about the “Deaths / Total No. Treated” value [1, 31] of the same molecule?
The value was 3/10 and 4/10.

And the “Deaths / Total No. Treated” value [1, 32]?
The value was 4/10.

And the “Deaths / Total No. Treated” value [1, 33]?
The value was 3/10 and 4/10.

What about the “Deaths / Total No. Treated” value [1, 34] of the same molecule?
Its value is 4/10.

What about the CD50 [1, 35] of the same molecule?
Its CD50 is 3.41 mg/kg.

What about the CD50 ([1]; subcutaneous, 30 Days, single dose, mice, 43200 min) of the same molecule?
Its CD50 is 3.41 mg/kg.

How did the ED50 ([1]; po, Example 6, mice) turn out when `CC(=O)Nc1nnc(SCC(=O)NC2C(=O)N3C(C(=O)O)=C(COC(C)=O)CSC23)s1` (stereo not drawn) [Compound C, 7-[2-(5-acetamido-1,3,4-thiadiazol-2-ylthio)acetamido]cephalosporanic acid, reference compound] was run?
Its ED50 is greater than 7.2 mg/kg.

And the “oral activity against the test organism” value ([1]; oral, Example 6, mice)?
The value was “lack of significant oral activity”.

What about the MIC [2] of the same molecule?
The MIC was 31.3 µg/mL (≈ 64.2 µM).

What about the MIC [3] of the same molecule?
The MIC was 62.5 µg/mL (≈ 128 µM).

What about the MIC [4] of the same molecule?
Its MIC is greater than 250 µg/mL.

And the MIC [5]?
Its MIC is 250 µg/mL (≈ 513 µM).

And the MIC [6]?
The MIC was 250 µg/mL (≈ 513 µM).

And the MIC [7]?
Its MIC is 15.6 µg/mL (≈ 32 µM).

What about the MIC [8] of the same molecule?
Its MIC is 7.81 µg/mL (≈ 16 µM).

And the MIC [9]?
The MIC was 7.81 µg/mL (≈ 16 µM).

And the MIC [10]?
The MIC was greater than 250 µg/mL.

What about the MIC [11] of the same molecule?
Its MIC is 15.6 µg/mL (≈ 32 µM).

What about the MIC [12] of the same molecule?
The MIC was 7.81 µg/mL (≈ 16 µM).

What about the MIC [13] of the same molecule?
The MIC was 15.6 µg/mL (≈ 32 µM).

And the MIC [14]?
Its MIC is 31.3 µg/mL (≈ 64.2 µM).

What about the MIC [15] of the same molecule?
Its MIC is greater than 250 µg/mL.

And the MIC [16]?
Its MIC is 250 µg/mL (≈ 513 µM).

And the MIC [17]?
The MIC was 15.6 µg/mL (≈ 32 µM).

What about the MIC [18] of the same molecule?
Its MIC is 15.6 µg/mL (≈ 32 µM).

What about the MIC [19] of the same molecule?
Its MIC is greater than 250 µg/mL.

What about the MIC [20] of the same molecule?
The MIC was 31.3 µg/mL (≈ 64.2 µM).

What about the MIC [21] of the same molecule?
Its MIC is greater than 250 µg/mL.

And the MIC [22]?
Its MIC is 62.5 µg/mL (≈ 128 µM).

And the MIC [23]?
The MIC was greater than 250 µg/mL.

What about the MIC [24] of the same molecule?
The MIC was greater than 250 µg/mL.
